According to ChEMBL document CHEMBL1201862, “PubChem BioAssay data set” (2004):
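Briefly, cells in 96-well plates were exposed to five compound concentrations for 48 h, and endpoints were estimated by linear interpolation. Abbreviation: GI50, concentration required for 50% inhibition of growth.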 The source made the active and inactive calls. Rule as the data show it: active = GI50 up to about 1.1 µM and inactive = higher. Where a SMILES comes first, the peptide text is derived from it.

Columns and labels:
Assay in all cases: NCI-60 cell line screen, 48 h
[1] = system: MCF7
[2] = system: Malme-3M
[3] = system: HT-29
[4] = system: TK-10
[5] = system: SNB-75
[6] = system: OVCAR-3
[7] = system: SW-620
[8] = system: A549
[9] = system: OVCAR-8
[10] = system: A498
[11] = system: CAKI-1
[12] = system: MDA-N
[13] = system: 786-0
[14] = system: U-251
[15] = system: NCI/ADR-RES
[16] = system: UACC-62
[17] = system: HCC 2998
[18] = system: HCT-15
[19] = system: UACC-257
[20] = system: MOLT-4

SMILES: CC(=O)Nc1c(C(=N)C#N)ncn1CCO
- GI50 [1]: > 100 µM (inactive)
- GI50 [2]: > 100 µM (inactive)
- GI50 [3]: > 100 µM (inactive)
- GI50 [4]: > 100 µM (inactive)
- GI50 [5]: > 100 µM (inactive)
- GI50 [6]: > 100 µM (inactive)
- GI50 [7]: > 100 µM (inactive)
- GI50 [8]: > 100 µM (inactive)
- GI50 [9]: > 100 µM (inactive)
- GI50 [10]: > 100 µM (inactive)
- GI50 [11]: > 100 µM (inactive)
- GI50 [12]: > 100 µM (inactive)
- GI50 [13]: > 100 µM (inactive)
- GI50 [14]: > 100 µM (inactive)
- GI50 [15]: > 100 µM (inactive)
- GI50 [16]: > 100 µM (inactive)
- GI50 [17]: > 100 µM (inactive)
- GI50 [18]: > 100 µM
- GI50 [19]: > 100 µM (inactive)

SMILES: NCCSS(=O)(=O)CCN
- GI50 [1]: > 100 µM (inactive)
- GI50 [2]: > 100 µM (inactive)
- GI50 [20]: > 100 µM (inactive)
- GI50 [3]: > 100 µM (inactive)
- GI50 [4]: > 100 µM (inactive)
- GI50 [5]: > 100 µM (inactive)
- GI50 [6]: > 100 µM (inactive)
- GI50 [7]: > 100 µM (inactive)
- GI50 [8]: > 100 µM (inactive)
- GI50 [9]: > 100 µM (inactive)
- GI50 [10]: > 100 µM (inactive)
- GI50 [11]: > 100 µM (inactive)
- GI50 [12]: > 100 µM (inactive)
- GI50 [13]: > 100 µM (inactive)
- GI50 [14]: > 100 µM (inactive)
- GI50 [15]: > 100 µM (inactive)
- GI50 [16]: > 100 µM (inactive)
- GI50 [17]: > 100 µM (inactive)
- GI50 [18]: > 100 µM

SMILES: C=C(C)[C@H]1C2=CC(C)=C(O2)[C@@H](O)[C@H](C(=C)C)CCC2=C[C@H]1OC2=O [KALLOLIDE A]
- GI50 [1]: > 100 µM (inactive)
- GI50 [2]: > 100 µM (inactive)
- GI50 [20]: > 100 µM (inactive)
- GI50 [4]: > 100 µM (inactive)
- GI50 [5]: > 100 µM (inactive)
- GI50 [6]: > 100 µM (inactive)
- GI50 [7]: > 100 µM (inactive)
- GI50 [8]: > 100 µM (inactive)
- GI50 [9]: > 100 µM (inactive)
- GI50 [10]: > 100 µM (inactive)
- GI50 [11]: > 100 µM (inactive)
- GI50 [12]: > 100 µM (inactive)
- GI50 [13]: > 100 µM (inactive)
- GI50 [14]: > 100 µM (inactive)
- GI50 [15]: > 100 µM (inactive)
- GI50 [16]: > 100 µM (inactive)
- GI50 [17]: > 100 µM (inactive)
- GI50 [18]: > 100 µM
- GI50 [19]: > 100 µM (inactive)

SMILES: COc1cccc(CCn2c(N)c(C(=O)O)c3ccc([N+](=O)[O-])cc3c2=O)c1
- GI50 [1]: 20.1 µM (inactive)
- GI50 [2]: 37.3 µM (inactive)
- GI50 [20]: 54.1 µM (inactive)
- GI50 [3]: 38.5 µM (inactive)
- GI50 [5]: 24.9 µM (inactive)
- GI50 [6]: 29.4 µM (inactive)
- GI50 [7]: > 100 µM (inactive)
- GI50 [8]: 27.8 µM (inactive)
- GI50 [9]: 36.6 µM (inactive)
- GI50 [10]: 40.5 µM (inactive)
- GI50 [11]: 43.5 µM (inactive)
- GI50 [12]: 30.3 µM (inactive)
- GI50 [13]: 31.1 µM (inactive)
- GI50 [14]: 25.9 µM (inactive)
- GI50 [15]: 28.9 µM (inactive)
- GI50 [16]: 52.4 µM (inactive)
- GI50 [17]: 53.2 µM (inactive)
- GI50 [18]: 31.8 µM

SMILES: CC(C)CC(NC(=O)C(Cc1ccccc1)NC(=O)C(Cc1c[nH]c2ccccc12)NC(=O)CNC(=O)C(N)Cc1ccc(O)cc1)C(=O)O (stereo unspecified) (H-YGWFL-OH; configuration not given here)
- GI50 [1]: 37.4 µM (inactive)
- GI50 [2]: 21.2 µM (inactive)
- GI50 [20]: 59.7 µM (inactive)
- GI50 [3]: 30.8 µM (inactive)
- GI50 [4]: 78.7 µM (inactive)
- GI50 [5]: 30.8 µM (inactive)
- GI50 [6]: 23.2 µM (inactive)
- GI50 [8]: 37.4 µM (inactive)
- GI50 [9]: 46.5 µM (inactive)
- GI50 [10]: 32.3 µM (inactive)
- GI50 [11]: 34.9 µM (inactive)
- GI50 [12]: 35.4 µM (inactive)
- GI50 [13]: 23.6 µM (inactive)
- GI50 [14]: 34.6 µM (inactive)
- GI50 [15]: 67.6 µM (inactive)
- GI50 [16]: 67.3 µM (inactive)
- GI50 [17]: 34.3 µM (inactive)
- GI50 [18]: 69 µM
- GI50 [19]: 41.2 µM (inactive)

SMILES: Cc1ccc(Nc2sc(C)cc2C#N)c([N+](=O)[O-])c1
- GI50 [1]: > 100 µM (inactive)
- GI50 [2]: > 100 µM (inactive)
- GI50 [20]: > 100 µM (inactive)
- GI50 [5]: > 100 µM (inactive)
- GI50 [6]: > 100 µM (inactive)
- GI50 [7]: > 100 µM (inactive)
- GI50 [8]: > 100 µM (inactive)
- GI50 [9]: > 100 µM (inactive)
- GI50 [10]: > 100 µM (inactive)
- GI50 [11]: > 100 µM (inactive)
- GI50 [12]: > 100 µM (inactive)
- GI50 [13]: > 100 µM (inactive)
- GI50 [14]: > 100 µM (inactive)
- GI50 [15]: 98.9 µM (inactive)
- GI50 [16]: > 100 µM (inactive)
- GI50 [17]: > 100 µM (inactive)
- GI50 [18]: 67.3 µM
- GI50 [19]: > 100 µM (inactive)

SMILES: CC(C)C(/C=C/c1ccc(Cl)c(Cl)c1)=N\NC(=O)N/N=C(/C=C/c1ccc(Cl)c(Cl)c1)C(C)C
- GI50 [1]: > 100 µM (inactive)
- GI50 [2]: > 100 µM (inactive)
- GI50 [20]: > 100 µM (inactive)
- GI50 [3]: > 100 µM (inactive)
- GI50 [4]: > 100 µM (inactive)
- GI50 [5]: > 100 µM (inactive)
- GI50 [6]: > 100 µM (inactive)
- GI50 [7]: > 100 µM (inactive)
- GI50 [9]: > 100 µM (inactive)
- GI50 [10]: > 100 µM (inactive)
- GI50 [11]: > 100 µM (inactive)
- GI50 [12]: > 100 µM (inactive)
- GI50 [13]: > 100 µM (inactive)
- GI50 [14]: > 100 µM (inactive)
- GI50 [15]: > 100 µM (inactive)
- GI50 [16]: > 100 µM (inactive)
- GI50 [17]: > 100 µM (inactive)
- GI50 [18]: > 100 µM
- GI50 [19]: > 100 µM (inactive)

SMILES: Cn1c(=O)oc2cc(Br)ccc21
- GI50 [1]: > 100 µM (inactive)
- GI50 [2]: > 100 µM (inactive)
- GI50 [20]: > 100 µM (inactive)
- GI50 [3]: > 100 µM (inactive)
- GI50 [4]: > 100 µM (inactive)
- GI50 [5]: > 100 µM (inactive)
- GI50 [6]: > 100 µM (inactive)
- GI50 [7]: > 100 µM (inactive)
- GI50 [8]: > 100 µM (inactive)
- GI50 [9]: > 100 µM (inactive)
- GI50 [10]: > 100 µM (inactive)
- GI50 [11]: > 100 µM (inactive)
- GI50 [12]: > 100 µM (inactive)
- GI50 [13]: > 100 µM (inactive)
- GI50 [15]: > 100 µM (inactive)
- GI50 [16]: > 100 µM (inactive)
- GI50 [17]: > 100 µM (inactive)
- GI50 [18]: > 100 µM
- GI50 [19]: > 100 µM (inactive)

SMILES: Cn1cnc([N+](=O)[O-])c1Sc1nc(N)nc2c1ncn2Cc1ccccc1
- GI50 [1]: 35.4 µM (inactive)
- GI50 [2]: 13.2 µM (inactive)
- GI50 [3]: 22.5 µM (inactive)
- GI50 [4]: 15.8 µM (inactive)
- GI50 [5]: 20.4 µM (inactive)
- GI50 [6]: 2.29 µM (inactive)
- GI50 [7]: 22.9 µM (inactive)
- GI50 [8]: 25.5 µM (inactive)
- GI50 [9]: 18.1 µM (inactive)
- GI50 [10]: 25 µM (inactive)
- GI50 [11]: 13.3 µM (inactive)
- GI50 [12]: 19.4 µM (inactive)
- GI50 [13]: 19 µM (inactive)
- GI50 [14]: 21.8 µM (inactive)
- GI50 [15]: 51.9 µM (inactive)
- GI50 [16]: 16.3 µM (inactive)
- GI50 [17]: 15.9 µM (inactive)
- GI50 [18]: 18 µM
- GI50 [19]: 14.3 µM (inactive)

SMILES: COc1cc(NC(C)=O)ccc1C(=O)N/N=C/c1ccc(Cl)cc1Cl
- GI50 [1]: 4.42 µM (inactive)
- GI50 [2]: 57.1 µM (inactive)
- GI50 [20]: 73.8 µM (inactive)
- GI50 [3]: > 100 µM (inactive)
- GI50 [5]: 13.6 µM (inactive)
- GI50 [6]: 52.8 µM (inactive)
- GI50 [7]: > 100 µM (inactive)
- GI50 [8]: 48 µM (inactive)
- GI50 [9]: 48.9 µM (inactive)
- GI50 [10]: 24.1 µM (inactive)
- GI50 [11]: 39.6 µM (inactive)
- GI50 [12]: 23.6 µM (inactive)
- GI50 [13]: 24.9 µM (inactive)
- GI50 [15]: > 100 µM (inactive)
- GI50 [16]: 31.6 µM (inactive)
- GI50 [17]: 57.1 µM (inactive)
- GI50 [18]: 83 µM
- GI50 [19]: 27 µM (inactive)

SMILES: O=c1[nH]cnc2c1ncn2[C@@H]1C[C@H]1CO
- GI50 [1]: > 100 µM (inactive)
- GI50 [2]: > 100 µM (inactive)
- GI50 [20]: > 100 µM (inactive)
- GI50 [3]: > 100 µM (inactive)
- GI50 [4]: > 100 µM (inactive)
- GI50 [5]: > 100 µM (inactive)
- GI50 [7]: > 100 µM (inactive)
- GI50 [8]: > 100 µM (inactive)
- GI50 [9]: > 100 µM (inactive)
- GI50 [10]: > 100 µM (inactive)
- GI50 [11]: > 100 µM (inactive)
- GI50 [12]: > 100 µM (inactive)
- GI50 [13]: > 100 µM (inactive)
- GI50 [14]: > 100 µM (inactive)
- GI50 [15]: > 100 µM (inactive)
- GI50 [16]: > 100 µM (inactive)
- GI50 [17]: > 100 µM (inactive)
- GI50 [18]: > 100 µM
- GI50 [19]: > 100 µM (inactive)
